Source: patent US5324742A, “Aldose reductase inhibitor obtained from Crucibulum sp. RF-3817” (Shionogi & Co., Ltd., priority 1990, dated 1994)
“Also recorded” adds a separate entry of the source.

Key:
Solubility in solvents = type: physicochemical; details: for State: solubility in organic solvents: organic solvents such as ethyl acetate, acetone, methanol, and ethanol
aldose reductase = target: T1, aldose reductase (Rattus norvegicus, UniProt P07943); test: Aldose reductase-inhibiting activity (rat lens homogenate supernatant, D,L-glyceroaldehyde substrate, TPNH coenzyme); type: biochemical; details: 10 mM D,L-glyceroaldehyde, 0.1 mM TPNH, pH 6.2, 25° C., absorbance at 340 nm
T1 construct: A homogenate of rat lenses was used as an enzyme source; from tissue; host or cells: rat lens, supernatant of the homogenate after centrifugation
Method: Aldose Reductase-Inhibiting Activity
A homogenate of rat lenses was used as an enzyme source, glyceroaldehyde as a substrate, and TPNH as a coenzyme. To a mixture of 0.1M phosphate buffer (pH 6.2), 0.4M sodium sulfate, 0.1 mM TPNH (reduced form of triphosphopyridine nucleotide), and 10 mM D, L-glyceroaldehyde, a supernatant obtained from the homogenate of rat lenses by centrifugation was added as an enzyme source, so that the change in absorbance at 340 nm became 0.02 units per minute at 25° C. The change in absorbance at 340 nm for initial one minute was measured at 25° C., and the inhibiting activity was determined.

| SMILES | State: solubility in organic solvents (Solubility in solvents) | IC50 (aldose reductase) [µM] | Solubility (Solubility in solvents; solvents: ethyl acetate, DMSO, methanol, ethanol, chloroform, ether, petroleum ether) |
| --- | --- | --- | --- |
| CC(C(=O)O)C1Cc2c(cc3c(c2O)C(=O)N(C(C)C(=O)O)C3=O)O1 (centres unmarked) [RD-01-C3] | soluble | – | – |
| CC(C(=O)O)C1Cc2c(cc3c(c2O)C(=O)N(CC(=O)O)C3=O)O1 (centres unmarked) [RD-01-C2] | soluble | – | – |
| CC(C(=O)O)C1Cc2c(cc3c(c2O)CN(CC(=O)O)C3=O)O1 (centres unmarked) [RD-01-A4] | soluble | – | soluble in ethyl acetate, DMSO, methanol, and ethanol; also recorded: slightly soluble in chloroform and ether; also recorded: insoluble in petroleum ether |

Further lines, with some results ahead:

| State: solubility in organic solvents (Solubility in solvents) | IC50 (aldose reductase) [µM] | SMILES | Solubility (Solubility in solvents; solvents: ethyl acetate, DMSO, methanol, ethanol, chloroform, ether, petroleum ether) |
| --- | --- | --- | --- |
| soluble | – | CC(C(=O)O)C1Cc2c(cc3c(c2O)CN(C(C)C(=O)O)C3=O)O1 (centres unmarked) [RD-01-A7] | – |
| soluble | – | CC(C(=O)O)C1Cc2c(cc3c(c2O)C(=O)NC3=O)O1 (centres unmarked) [RD-01-C1] | – |
| soluble | 11.9 | CC(C(=O)O)C1Cc2c(cc3c(c2O)CN(C(CCC(=O)O)C(=O)O)C3=O)O1 (centres unmarked) [RD-01-A3] | – |
